Results reported in patent US20080227752A1, “Methods to Inhibit Histone Acetyltransferase Using Glycosaminoglycans” (Trustees of Boston University, priority 2004, published 2008).
“Also recorded” adds a separate entry of the source. Each block holds one compound with its values, some of them ahead of it.

Key:
[1] = target: T1, p300 HAT domain (Homo sapiens, UniProt Q09472); experiment: In vitro HAT activity assay, biotinylated histone H4 peptide substrate, streptavidin capture; type: biochemical; conditions: for HAT inhibitory activity of modified heparins: 10 ug/ml, p300, H4 peptide (FIG. 9)
T1 construct: 20 U/mL of HAT enzyme (p300 HAT domain; from Upstate); purchased Upstate (Lake Placid, N.Y.)
T1 sequence (Q09472 1287-1663 limits assumed): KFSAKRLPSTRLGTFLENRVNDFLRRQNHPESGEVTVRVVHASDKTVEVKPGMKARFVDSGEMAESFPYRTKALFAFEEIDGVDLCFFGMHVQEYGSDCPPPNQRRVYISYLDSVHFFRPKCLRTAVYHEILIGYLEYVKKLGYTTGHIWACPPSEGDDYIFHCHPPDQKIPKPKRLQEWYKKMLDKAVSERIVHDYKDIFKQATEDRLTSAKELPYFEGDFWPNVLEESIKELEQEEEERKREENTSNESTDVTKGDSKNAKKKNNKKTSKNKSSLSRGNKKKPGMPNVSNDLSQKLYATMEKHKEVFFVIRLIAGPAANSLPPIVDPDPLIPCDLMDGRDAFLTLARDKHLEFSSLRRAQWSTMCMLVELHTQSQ
Procedure: Biotinylated histone H4 peptide (substrate) is incubated with recombinant HAT enzyme (p300 catalytic domain) and ^3H-Acetyl-CoA, resulting in the covalent transfer of ^3H-acetate to the substrate. The ^3H-acetylated substrate can be extracted using immobilized streptavidin and counted in a scintillation counter. Thus, the amount of ^3H-acetylated substrate is a direct measure of HAT enzyme activity. Additional assays for HAT activity use core histones as the substrate and the ^3H-acetylated histone reaction products were separated from ^3H-Acetyl-CoA by membrane filtration.
Various concentrations of heparin were incubated in the presence of biotinylated histone H4 peptide, recombinant p300 catalytic domain, and [^3H]-acetyl-CoA for 1 hr at 30° C. Immobilized streptavidin was used to sequester the biotinylated substrate and was counted in a scintillation counter. Data presented are means of duplicates ±1 SE and are representative of five separate experiments. The amount of [^3H] associated with the immobilized streptavidin-biotinylated substrate in the absence of HAT enzyme (negative control) was 54.2±12.0.
HAT activity was assessed in vitro as outlined in FIG. 2. In a 1.7 mL microcentrifuge tube, 100 μL of substrate (biotinylated histone H4 peptide in 50 mM Tris, pH 7.4, 1 mM EDTA; from Pierce), 100 μL of a 5 mg/mL BSA solution (in H2O), 10.5 μL of 10×HAT buffer (500 mM Tris, pH 7.4, 10 mM EDTA), 20 U/mL of HAT enzyme (p300 HAT domain; from Upstate), and 1 μCi/mL of [^3H] Acetyl-CoA (Amersham) were mixed together and the reaction was allowed to proceed at 30° C. for 1 hour. Following this incubation, 100 μL of a 1:1 slurry of immobilized streptavidin (Pierce) pre-equilibrated in 1×HAT buffer (50 mM Tris, pH 7.4, 1 mM EDTA) was added and the sample was incubated for 30 min at RT on a rotating platform. After centrifugation at 10,000 g for 4 min, the supernatant containing the excess reactants was removed and the pellet containing the acetylated substrate bound to the immobilized streptavidin was washed 3 times with 500 μL RIPA buffer (50 mM Tris, pH 7.4, 150 mM NaCl, 1 mM EDTA, 1% NP-40, 0.5% SDC, 0.1% SDS). After the final wash, the pellet was resuspended in 500 μL 1×HAT buffer, diluted in EcoLite, and counted in a scintillation counter. Because of sample volume restrictions, reaction volumes were scaled down in some experiments.

[2] = target: T2, pCAF (Homo sapiens, UniProt Q92831); experiment: Core histone acetylation filter binding HAT assay, pCAF; type: biochemical; conditions: core histones; for inhibitory activity on pCAF HAT: range of concentrations tested; for 50% inhibition (IC50): 30 minutes 30° C
T2 construct: purchased BIOMOL International (Plymouth Meeting, Pa.)
Procedure: (§1) In the presence of 0.5 μCi [^3H]acetyl Co A, 10 μg core histones was incubated with either 0.5 μg pCAF (filled circles, […]) or 0.83 μg p300 HAT domain (open circles, ∘) and the indicated heparin concentrations for 30 minutes at 30° C. Formation of [^3H]acetylated core histones was determined by vacuum filtration of the samples across a nitrocellulose membrane and quantitated by liquid scintillation counting. The data is expressed as the mean % Control ±SD. Background CPM in samples without added enzyme was 5781.25 while [^3H]acetylated histone CPM in samples without heparin were 16484.5 for the pCAF containing samples and 9960.5 for the p300 HAT domain samples.
10 μg core histones were incubated with 0.5 μg pCAF, 0.5 μCi [^3H]acetyl Co A and the indicated concentrations of chondroitin sulfate (filled circles, […]), dextran (open circles, ∘), D-glucosamine (filled squares, ▪), hyaluronic acid (open squares, □) or keratan sulfate (filled triangles, ▴) for 30 minutes at 30° C. 35 μl aliquots of the reaction mixtures were spotted onto nitrocellulose filter in a dot blot apparatus under vacuum to remove unincorporated [^3H]acetyl Co A. The sample wells and filters were washed with 50 mM tris pH 7.6 and the samples were processed for liquid scintillation counting. The data is expressed as the mean % Control ±SD. 100% is equal to the activity in the absence of any additives.
(§2) 10 μg core histones was incubated with 0.5 μg pCAF, 0.5 μCi [^3H]acetyl Co A and the indicated concentrations of N-Desulfated Heparin (filled circles, […]) or Fully O-Desulfated Heparin (open circles, ∘) for 30 minutes at 30° C. 35 μl aliquots of the reaction mixtures were filtered through a nitrocellulose filter in a Bio Dot Apparatus under vacuum. The wells and filter were washed with 50 mM tris pH 7.6 and the membrane was processed for liquid scintillation counting. The data is expressed as the mean % Control ±SD.
FIGS. 15A and 15B show inhibition of pCAF HAT Activity by elastase generated proteoglycans. FIG. 15A, Proteoglycans (PG) were purified from pulmonary fibroblast elastase supernatants using anion exchange chromatographic methods. Heparan sulfate proteoglycan fragments (HSPGf) were generated by treating the PG fraction with 10 mU/ml chondroitinase ABC and repurifying the fragments by anion exchange chromatography. Core histones (10 μg) were incubated with 0.5 μg pCAF, 0.5 μCi [^3H]acetyl Co A and the indicated concentrations of PG (filled squares, ▪) or HSPGf (open squares, □) for 30 minutes at 30° C. 35 μl aliquots of the reaction mixtures were filtered through a nitrocellulose filter and the membrane was processed for liquid scintillation counting. The data is expressed as the mean % Control ±SD. FIG. 15B, Proteoglycans (PG) were purified from another preparation of pulmonary fibroblast elastase supernatants. Free GAG chains (B-PG) were generated by treating the PG fraction with alkaline borohydride and were recovered by anion exchange methods. Core histones (Core histones (10 μg) were incubated with 0.5 μg pCAF, 0.5 μCi [^3H]acetyl Co A and the indicated concentrations of PG (filled squares, ▪) or B-PG (open squares, □) for 30 minutes at 30° C. 35 μl aliquots of the reaction mixtures were filtered through a nitrocellulose filter and the membrane was processed for liquid scintillation counting. The data is expressed as the mean % Control ±SD.
as §2, with “2-O-Desulfated” for “N-Desulfated”, “([…])” for “(filled circles, […])”, “6-O-Desulfated” for “Fully O-Desulfated”, “(∘)” for “(open circles, ∘)”, “±SD. […]” for “±SD.”

[3] = test system: histone H3 acetylation in pulmonary fibroblasts; experiment: Histone H3 acetylation in pulmonary fibroblasts by western blot; type: cell-based, neonatal rat; conditions: 10 μg/ml, 24 h
Procedure: (§3) Primary neonatal rat fibroblasts and smooth muscle cells were established as described (Foster, J. A. et al., (1990)) and treated with heparin or N-desulfated heparin (10 μg/ml) for 24 h. Total cell extracts (100 μg protein for fibroblasts and 200 μg protein for smooth muscle cells) were generated and subjected to SDS-PAGE followed by electrotransfer to Immobilon membrane. Membranes were incubated with anti-acetylated histone H3 (Upstate) followed by enzyme linked secondary antibody. Bands were visualized with ECL.
Primary cultures of pulmonary fibroblasts were isolated from the lungs of neonatal rats using established protocols (Foster, J. A., et al., (1990) Pulmonary fibroblasts: an in vitro model of emphysema. Regulation of elastin gene expression, J Biol Chem 265, 15544-9). The cells were maintained in Dulbecco's Minimal Essential Medium supplemented with 5% fetal bovine serum, 0.1 mM non-essential amino acid solution, 100 U/ml penicillin and 100 μg/ml streptomycin. The cells were used in second passage for all experiments. Cell number determination was made based upon assay of cellular acid phosphatase levels using a previously established method (Connolly, D. T., et al., (1986) Anal. Biochem. 152, 136-140).
Immobilon membranes were blocked for 1 hour at room temperature with blocking buffer containing 3% milk in tris buffered saline containing 0.1% tween-20 (TBST). […]

[4] = test system: histone H3 acetylation in aortic smooth muscle cells; experiment: Histone H3 acetylation in aortic smooth muscle cells by western blot; type: cell-based, neonatal rat; conditions: 10 μg/ml, 24 h
Procedure: as §3
Immobilon membranes were blocked for 1 hour at room temperature with blocking buffer containing 3% milk in tris buffered saline containing 0.1% tween-20 (TBST). The blots were rinsed twice with TBST prior to incubation with the primary antibody solutions. The blots were incubated with the appropriate antibody dilution for 1 hour at room temperature or overnight at 4° C. The blots were washed with TBST prior to incubation with the appropriate HRP-linked IgG for 1 hour at room temperature. The blots were washed with TBST prior to chemiluminescence exposure.
We also treated another cell type, aortic smooth muscle cells, with heparin to determine if this response was general or specific to the pulmonary cells.

[5] = target: T1, p300 HAT domain; experiment: Core histone acetylation filter binding HAT assay, p300; type: biochemical; conditions: core histones, 30 minutes 30° C
Procedure: as §1
Heparin-mediated inhibition of HAT activity was determined using two independent methods. The first assay method used a modified protocol to measure the ability of pCAF or p300 to acetylate a synthetic, biotinylated peptide of histone H3 or H4 in the absence and presence of heparin or its derivatives. Commercially available pCAF or p300 HAT domain were added to an iced reactions mixture containing 3 μg biotinylated Histone H3 or H4 peptide, 50 mM tris pH 7.4, 1 mM EDTA with and without the indicated concentrations of heparin. […] The filter was allowed to air dry and the filters were processed and counted using liquid scintillation methods.

T2 sequence (Q92831 whole entry): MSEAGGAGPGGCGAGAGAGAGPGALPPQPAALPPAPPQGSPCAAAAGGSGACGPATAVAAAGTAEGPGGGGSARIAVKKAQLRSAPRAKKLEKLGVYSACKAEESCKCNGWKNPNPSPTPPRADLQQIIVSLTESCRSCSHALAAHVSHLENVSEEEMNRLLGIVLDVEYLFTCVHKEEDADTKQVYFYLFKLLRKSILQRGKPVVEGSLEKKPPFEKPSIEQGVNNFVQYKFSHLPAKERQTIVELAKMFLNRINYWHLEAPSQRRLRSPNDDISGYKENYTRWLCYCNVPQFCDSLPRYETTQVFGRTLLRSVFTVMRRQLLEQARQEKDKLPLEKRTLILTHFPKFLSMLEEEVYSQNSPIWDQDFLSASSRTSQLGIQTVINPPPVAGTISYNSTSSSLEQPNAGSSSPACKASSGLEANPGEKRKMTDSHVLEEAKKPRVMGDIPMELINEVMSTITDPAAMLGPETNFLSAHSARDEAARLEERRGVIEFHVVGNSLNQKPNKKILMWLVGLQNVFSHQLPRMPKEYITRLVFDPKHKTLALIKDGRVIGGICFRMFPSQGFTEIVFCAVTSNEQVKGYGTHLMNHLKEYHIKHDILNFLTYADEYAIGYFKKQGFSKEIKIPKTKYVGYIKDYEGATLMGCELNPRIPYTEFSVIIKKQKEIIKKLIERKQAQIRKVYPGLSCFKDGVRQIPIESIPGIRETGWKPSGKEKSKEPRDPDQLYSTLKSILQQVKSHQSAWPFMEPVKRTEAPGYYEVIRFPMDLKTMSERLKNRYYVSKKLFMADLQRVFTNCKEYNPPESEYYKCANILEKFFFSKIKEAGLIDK

- inhibitory activity on pCAF HAT [2]: did not show any inhibitory activity
Compound: dextran [reference compound]

- inhibition of HAT activity ([1]; 34 μg/mL): almost complete inhibition
- IC50 ([1]; molecular weight ~15 kD, read-out: IC50 for HAT activity, molar equivalent): ~1100 nM
- 50% inhibition (IC50) [2]: ~7 µg/mL
- 50% inhibition (IC50) [5]: ~5 µg/mL
Compound: heparin [reference compound]
- level of histone H3 acetylation [3]: reduced histone H3 actetylation slightly
- level of histone H3 acetylation [4]: significant reduction of histone H3 acetylation

- effectiveness relative to heparin and other GAGs [2]: the least effective
- inhibitory activity on pCAF HAT [2]: showed inhibition
Compound: hyaluronic acid

- inhibitory activity on pCAF HAT [2]: showed inhibition
Compound: keratan sulfate

The remaining lines, values behind:

Compound: 2-O desulfated heparin
- HAT inhibitory activity of modified heparins [1]: retained HAT inhibitory activity; also recorded: showed reduced activity when compared to heparin
- inhibitory activity on pCAF HAT [2]: did not result in significant loss of function

Compound: 6-O desulfated heparin
- HAT inhibitory activity of modified heparins [1]: retained HAT inhibitory activity; also recorded: showed reduced activity when compared to heparin
- inhibitory activity on pCAF HAT [2]: did not result in significant loss of function

Compound: CC(=O)N[C@H]1C(O)O[C@H](CO)[C@@H](O)[C@@H]1O (stereo partly drawn) [N-acetyl glucosamine, N-Acetyl-D-glucosamine, reference compound]
- inhibitory activity on pCAF HAT [2]: none of the monosaccharides showed any significant inhibitory activity

Compound: N[C@H]1C(O)O[C@H](CO)[C@@H](O)[C@@H]1O (stereo partly drawn) [glucosamine, D-glucosamine, reference compound]
- inhibitory activity on pCAF HAT [2]: none of the monosaccharides showed any significant inhibitory activity

Compound: O=C[C@H](O)[C@@H](O)[C@H](O)[C@H](O)C(=O)O [glucuronic acid, reference compound]
- inhibitory activity on pCAF HAT [2]: none of the monosaccharides showed any significant inhibitory activity

Compound: N-desulfated heparin
- HAT inhibitory activity of modified heparins [1]: nearly eliminated HAT (p300) inhibition
- 50% inhibition (IC50) [2]: ~20 µg/mL

Compound: chondroitin sulfate
- inhibitory activity on pCAF HAT [2]: showed inhibition
